From patent publication US8236785B2, “Method of treating or preventing infertility in a female mammal and pharmaceutical kit for use in such method” (Pantarhei Bioscience B.V., priority 2007, dated 2012)

What was measured:
premature LH-surge [1] = experiment: Open-label uncontrolled clinical trial of premature LH-surge prevention in women undergoing COH/IVF; format: in vivo; conditions: daily oral 40 mg
Experimental: An open-label, uncontrolled, single centre clinical trial is performed to investigate the efficacy, safety and tolerability of premature LH-surge prevention in 10 women undergoing IVF treatment for infertility by Controlled Ovarian Hyperstimulation (COH), using a daily oral dosage of 40 mg estetrol (E4) from day 6 of FSH treatment up to and including the day of hCG administration to resume meiosis and induce lutëinisation. Oocytes are retrieved 30-38 hours after hCG administration, fertilised in vitro and two days later no more than two embryos are transferred to the uterus of the patient. Standard luteal support is prescribed.
Ultrasonographic monitoring of follicle growth and endometrial thickness are performed during this treatment procedure including extensive and repeated hormonal analysis and measurement of E4 levels extending into the luteal phase after embryo transfer.

ERα receptor = biological target: T1, ERα receptor (Homo sapiens, UniProt P03372); experiment: Estrogen receptor affinity; format: binding
T1 sequence (P03372 1-595): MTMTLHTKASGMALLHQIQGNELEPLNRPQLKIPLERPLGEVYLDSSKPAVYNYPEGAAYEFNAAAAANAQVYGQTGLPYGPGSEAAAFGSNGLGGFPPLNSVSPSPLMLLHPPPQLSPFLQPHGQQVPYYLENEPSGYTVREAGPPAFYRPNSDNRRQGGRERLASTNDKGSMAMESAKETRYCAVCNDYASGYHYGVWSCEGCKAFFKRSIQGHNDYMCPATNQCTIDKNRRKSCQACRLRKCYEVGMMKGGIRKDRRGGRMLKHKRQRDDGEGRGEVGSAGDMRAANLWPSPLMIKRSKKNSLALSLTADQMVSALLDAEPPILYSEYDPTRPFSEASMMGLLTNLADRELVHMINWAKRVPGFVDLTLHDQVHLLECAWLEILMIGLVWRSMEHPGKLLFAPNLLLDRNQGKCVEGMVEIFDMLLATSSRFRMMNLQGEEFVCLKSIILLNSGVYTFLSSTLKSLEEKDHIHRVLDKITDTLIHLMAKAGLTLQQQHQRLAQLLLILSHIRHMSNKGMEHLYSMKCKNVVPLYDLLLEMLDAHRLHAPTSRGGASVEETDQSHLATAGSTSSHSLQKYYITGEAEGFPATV

ERβ receptor = ERβ receptor (Homo sapiens, UniProt Q92731); experiment: Estrogen receptor affinity; format: binding
Chain of ERβ receptor (Q92731 whole entry): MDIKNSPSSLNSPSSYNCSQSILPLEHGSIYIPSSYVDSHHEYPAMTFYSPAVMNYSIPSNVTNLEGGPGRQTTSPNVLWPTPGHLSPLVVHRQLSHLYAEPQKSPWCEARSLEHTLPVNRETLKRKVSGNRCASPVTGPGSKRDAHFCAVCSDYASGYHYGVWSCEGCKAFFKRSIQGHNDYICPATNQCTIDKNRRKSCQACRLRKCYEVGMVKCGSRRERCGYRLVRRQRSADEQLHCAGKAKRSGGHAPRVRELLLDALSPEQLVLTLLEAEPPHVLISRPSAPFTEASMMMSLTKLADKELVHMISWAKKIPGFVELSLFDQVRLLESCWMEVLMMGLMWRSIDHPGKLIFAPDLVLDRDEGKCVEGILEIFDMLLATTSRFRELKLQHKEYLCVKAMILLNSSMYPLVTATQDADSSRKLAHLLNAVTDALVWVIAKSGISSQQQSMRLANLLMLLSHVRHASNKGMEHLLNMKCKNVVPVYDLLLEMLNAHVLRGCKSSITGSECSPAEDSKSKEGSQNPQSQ

premature LH-surge [2] = experiment: Randomised controlled dose-finding clinical trial of premature LH-surge prevention in COH/IVF, E4 versus ganirelix; format: in vivo, women
Experimental: An open-label, randomised, controlled, dose-finding, multi-centre clinical trial is performed to investigate and compare the efficacy, safety and tolerability of premature LH-surge prevention in women undergoing COH/IVF using either E4 in an oral dosage of 1, 5, 10, 20, 40 or 80 mg per day or a daily subcutaneous injection of 0.25 mg ganirelix. Group size is 30 women, so in total 210 patients participate in the trial. E4/ganirelix treatment is started on day 6 of FSH treatment up to and including the day of hCG administration. Further procedures are similar to example 1.

affinity for the ERα receptor (ERα receptor): relatively high affinity
affinity for the ERβ receptor (ERβ receptor): relatively low affinity
Structure (SMILES): C[C@]12CC[C@@H]3c4ccc(O)cc4CC[C@H]3[C@@H]1[C@@H](O)[C@@H](O)[C@@H]2O [estetrol, 1,3,5 (10)-estratrien-3,15α,16α,17β-tetrol]
tolerability / side-effects (premature LH-surge [1]): well tolerated without significant side-effects
prevention of a premature LH-surge (premature LH-surge [1]; from day 6 of FSH treatment up to and including day of hCG, 10 women): efficacious in preventing a premature LH-surge
vital pregnancies (premature LH-surge [1]; COH/IVF with embryo transfer): Vital pregnancies occur
prevention of premature LH-surges compared with ganirelix (premature LH-surge [2]; higher oral dosages vs daily subcutaneous 0.25 mg ganirelix): equally effective to parenteral ganirelix
prevention of premature LH-surges (premature LH-surge [2]; oral 1, 5, 10, 20, 40 or 80 mg per day): dose dependent prevention of premature LH-surges
tolerability / side-effects (premature LH-surge [2]; oral 1-80 mg per day): well tolerated and without significant side-effects
vital pregnancy rates compared with ganirelix (premature LH-surge [2]; oral E4 vs daily subcutaneous 0.25 mg ganirelix): trend to be superior to ganirelix treated patients
